Experimental data reported in patent US6797720B2, “1,3,4-oxadiazoline derivative and an agent comprising its derivative as active ingredient” (ONO Pharmaceutical Co., Ltd., priority 1999, dated 2004).

Columns and labels:
Assay type in all cases: biochemical
[1] = target: T1, cathepsin K (Homo sapiens, UniProt P43235); test: Measurement of cathepsin K inhibitory activity; conditions: Dixon plot, pH 5.5, 37° C.
T1 sequence (P43235 115-329): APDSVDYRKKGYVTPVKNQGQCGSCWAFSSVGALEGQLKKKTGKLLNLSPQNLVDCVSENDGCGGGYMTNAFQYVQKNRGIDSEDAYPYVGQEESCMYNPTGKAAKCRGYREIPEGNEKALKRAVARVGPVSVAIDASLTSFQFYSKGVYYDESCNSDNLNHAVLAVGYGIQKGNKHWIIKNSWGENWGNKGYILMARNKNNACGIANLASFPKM
Experimental: (i) Measurement of Cathepsin K Inhibitory Activity
Cathepsin K enzyme reaction buffer (50 mmol/L 2-(N-morpholino)ethanesulfonate, 2 mmol/L ethylenediamine tetraacetate (EDTA) and 4 mmol/L dithiothreitol (DTT) were mixed to adjust to pH 5.5) (65 μL), cysteine protease inhibitor solution (5 μL) of several concentrations, synthesized substrate (t-butyloxycarbonyl-L-alanyl-glycyl-L-prolyl-L-arginine-4-me thyl-chromanyl-7-amide) solution (20 μL) of several concentrations and cathepsin K enzyme solution (10 μL) were mixed and the increase of fluorescence intensity when reacted at 37° C. was measured (λex(excitation wavelength)355 nm, λem (fluorescence wavelength) 460 nm). As to the substrate and the compound of the present invention, enzyme reactions were carried out in combination of several appropriate concentrations, Dixon plotting was prepared, to define the absolute value of X-coordinate of the intersection point of the graph as Ki value.

[2] = target: cathepsin B (Homo sapiens, UniProt P07858); test: Measurement of cathepsin B inhibitory activity
Experimental: (ii) Measurement of Cathepsin B Inhibitory Activity
Synthesized substrate of several concentrations (carbobenzoxy-L-arginyl-L-arginine-4-methyl-chromanyl-7-amide or carbobenzoxy-L-phenylalanyl-L-arginine-4-methyl-chromanyl-7-amide) solution (10 μL), cysteine protease inhibitor solution of several concentrations (10 μL), cathepsin B enzyme reaction buffer (mixture of 400 mmol/L in acetic acid, 4 mmol/L EDTA, 8 mmol/L DDT to adjust to pH 5.5) 70 μL and cathepsin B enzyme solution 10 μL were mixed and the increase of fluorescence intensity was measured (λex=355 nm, λem=460 nm) when reacted at 37° C.

[3] = target: cathepsin S (Homo sapiens, UniProt P25774); test: Measurement of cathepsin S inhibitory activity
Sequence of cathepsin S (P25774 115-331, species assumed): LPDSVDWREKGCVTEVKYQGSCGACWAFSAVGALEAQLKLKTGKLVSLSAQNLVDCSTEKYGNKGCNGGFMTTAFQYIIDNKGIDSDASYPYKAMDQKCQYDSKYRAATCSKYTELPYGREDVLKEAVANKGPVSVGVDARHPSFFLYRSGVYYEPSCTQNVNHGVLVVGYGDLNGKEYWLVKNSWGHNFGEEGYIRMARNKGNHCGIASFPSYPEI
Experimental: (iii) Measurement of Cathepsin S Inhibitory Activity
Synthesized substrate of several concentrations (carbobenzoxy-L-leucyl-L-leucyl-L-arguinine-4-methyl-chroman yl-7-amide) solution (10 μL), cysteine protease inhibitor solution (5 μL) of several concentrations, cathepsin S enzyme reaction buffer (100 mmol/L sodium phosphate, 2 mmol/L EDTA, 2 mmol/L DTT were mixed to adjust to pH 6.5) (75 μL) and cathepsin S enzyme solution (10 μL) were mixed and the increase of fluorescence intensity was measured (λex=355 nm, λem=460 nm) when reacted at 37° C.

[4] = target: cathepsin L (Homo sapiens, UniProt P07711); test: Measurement of cathepsin L inhibitory activity
Sequence of cathepsin L (P07711 114-333, species assumed): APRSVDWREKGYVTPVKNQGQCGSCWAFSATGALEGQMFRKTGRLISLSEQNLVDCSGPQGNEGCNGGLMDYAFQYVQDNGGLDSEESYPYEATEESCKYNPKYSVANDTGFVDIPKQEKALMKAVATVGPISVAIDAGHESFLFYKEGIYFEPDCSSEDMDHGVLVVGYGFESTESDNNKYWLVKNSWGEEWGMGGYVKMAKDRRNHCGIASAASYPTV
Experimental: (iv) Measurement of Cathepsin L Inhibitory Activity
Synthesized substrate of several concentrations (carbobenzoxy-L-phenylalanyl-L-arguine-4-methyl-chromanyl-7-amide or L-prolyl-L-phenylalanyl-L-arguinine-4-methyl-chromanyl-7-amide) solution (5 μL), cysteine protease inhibitor solution (5 μL) of several concentrations, cathepsin L enzyme reaction buffer (400 mmol/L acetic acid, 4 mmol/L EDTA, 8 mmol/L DTT were mixed to adjust to pH 5.5) 80 μL and cathepsin L enzyme solution (10 μL) were mixed and the increase of fluorescence intensity was measured (λex=355 nm, λem=460 nm) when reacted at 37° C.

CC(C)C[C@H](NC(=O)[C@@H]1CCCC[C@@H]1NC(=O)c1ccccc1)C(=O)c1n[nH]c(=O)o1 [example 1]
Ki [1]: 86 nM

CC(C)C[C@H](NC(=O)OCc1ccccc1)C(=O)N[C@@H](CC(C)C)C(=O)c1n[nH]c(=O)o1 [Example 1 (1), (2S)-N-[(2S)-4-methyl-1-oxo-1-(2-oxo-1,3,4-oxadiazolin-5-yl)-2-pentyl]-4-methyl-2-(benzyloxycarbonylamino)pentanamide]
inhibition at 1 µM [2]: 97%
inhibition at 1 µM [3]: 99%
inhibition at 1 µM [4]: 100%
Ki [1]: 13 nM
